Source: US20090269394A1, “METHODS AND COMPOSITIONS FOR TREATING ONCHOMYCOSIS” (priority 2008, published 2009)
In brackets after ≈: the same amount, converted by molar mass. Like-named read-outs stand apart in the source and are kept apart here.

Key:
[1] = system: Trichophyton mentagrophytes; experiment: MIC/MFC microtiter broth dilution; type: cell-based; conditions: for MIC90 / MIC50: Trichophyton mentagrophytes; for MFC50 / MFC90 / MIC range: n = 14 isolates, NB-002 as μg CPC/ml
Epidermophyton floccosum [2] = experiment: MIC/MFC microtiter broth dilution; type: cell-based; conditions: n = 6 isolates; NB-002 as μg CPC/ml
Trichophyton tonsurans = experiment: MIC/MFC microtiter broth dilution; type: cell-based
Microsporum canis = experiment: MIC/MFC microtiter broth dilution; type: cell-based; conditions: M. canis n = 10 (tinea capitis species)
T. violaceum = experiment: MIC against species that cause tinea capitis; type: cell-based; conditions: T. violaceum n = 10
M. audouinii = experiment: MIC against species that cause tinea capitis; type: cell-based; conditions: M. audouinii n = 10
[3] = system: Candida albicans isolates; experiment: MIC/MFC microtiter broth dilution; type: cell-based; conditions: NB-002 as μg CPC/ml
Alternaria spp. = experiment: MIC against rare onychomycosis pathogens (CLSI M 38-A); type: cell-based; conditions: 3 isolates; NB-002 as μg CPC/ml
Description: (§1) Methods: All fungi were from patients, many of which had onychomycosis or another tinea infection.

Aspergillus spp. = experiment: as above; type: cell-based; conditions: 5 isolates; NB-002 as μg CPC/ml
Description: as §1

Chaetomium spp. = experiment: as above; type: cell-based; conditions: 3 isolates; NB-002 as μg CPC/ml
Description: as §1

Curvularia spp. = experiment: as above; type: cell-based; conditions: 3 isolates; NB-002 as μg CPC/ml
Description: as §1

Epicoccum nigrum = experiment: as above; type: cell-based; conditions: 3 isolates; NB-002 as μg CPC/ml
Description: as §1

Paecilomyces spp. = experiment: as above; type: cell-based; conditions: 4 isolates; NB-002 as μg CPC/ml
Description: as §1

Phoma sp. = experiment: as above; type: cell-based; conditions: 3 isolates; NB-002 as μg CPC/ml
Description: as §1

Scedosporium spp. = experiment: as above; type: cell-based; conditions: 5 isolates; NB-002 as μg CPC/ml
Description: as §1

Scopulariopsis spp. = experiment: as above; type: cell-based; conditions: 5 isolates; NB-002 as μg CPC/ml
Description: as §1

Scytalydium spp. = experiment: as above; type: cell-based; conditions: 10 isolates; NB-002 as μg CPC/ml
Description: as §1

Trichophyton soundanense = experiment: as above; type: cell-based; conditions: 3 isolates; NB-002 as μg CPC/ml
Description: as §1

Trichophyton verrucosum = experiment: as above; type: cell-based; conditions: 3 isolates; NB-002 as μg CPC/ml
Description: as §1

Acremonium spp. = experiment: as above; type: cell-based; conditions: 5 isolates; NB-002 as μg CPC/ml
Description: as §1

Epidermophyton floccosum [4] = experiment: microbe, parasite or virus in culture; type: cell-based; conditions: read-out: Final MIC
Experimental: (§2) Phenotypically resistant isolates were tested for MICs and compared to parental MICs.

[5] = system: Trichophyton mentagrophytes; experiment: microbe, parasite or virus in culture; type: cell-based
Experimental: as §2

Trichophyton rubrum [6] = experiment: microbe, parasite or virus in culture; type: cell-based
Experimental: as §2

T. rubrum = experiment: Time-kill experiments on mycelia and microconidia; type: cell-based, Trichophyton rubrum
Experimental: Time-kill experiments. […] Part of the conidial suspension was pelleted and resuspended in RPMI 1640 medium and grown for 16-18 hours overnight at room temperature to allow germination of microconidia. After germination, the hyphae were collected by centrifugation and resuspended in distilled water. […] Colony-forming units were counted after four days of incubation at 35° C.

Trichophyton rubrum [7] = type: cell-based; conditions: 10^7 conidia plated; NBD031-b; drug plate 0.125 μg/ml
Fusarium spp. = experiment: MIC against rare onychomycosis pathogens (CLSI M 38-A); type: cell-based; conditions: 10 isolates; NB-002 as μg CPC/ml
Description: as §1

[8] = T. tonsurans n = 10 (tinea capitis species)
[9] = Azole-Resistant isolates (n = 24)
[10] = Azole-Susceptible isolates (n = 10)
[11] = Candida albicans, Azole-Resistant isolates (n = 24), read-out: MIC90
[12] = Candida albicans, Azole-Susceptible isolates (n = 10), read-out: MIC90
[13] = read-out: Final MIC, isolate NBD012-a, selected on NB-002 drug plate 8 μg/ml
[14] = read-out: Final MIC, isolate NBD012-b, selected on NB-002 drug plate 16 μg/ml
[15] = read-out: Final MIC, isolate NBD012-c, selected on NB-002 drug plate 32 μg/ml
[16] = read-out: Final MIC, isolate NBD012-d, selected on terbinafine drug plate 0.0625 μg/ml
[17] = read-out: Final MIC, isolate NBD013-a, selected on itraconazole drug plate […]
[18] = read-out: Final MIC, isolate NBD014-a, selected on NB-002 drug plate 32 μg/ml
[19] = read-out: Final MIC, isolate NBD031-a, selected on NB-002 drug plate 16 μg/ml
[20] = read-out: Final MIC, isolate NBD031-b, selected on itraconazole drug plate 0.125 μg/ml
[21] = read-out: Final MIC, isolate NBD031-c, selected on terbinafine drug plate 0.125 μg/ml

SMILES | MIC90 [1] [µg/mL] | MIC50 ([1]; read-out: MIC50) [µg/mL] | MFC50 [1] [µg/mL] | MFC90 [1] [µg/mL] | MIC range [1] [µg/mL] | MIC range (Epidermophyton floccosum [2]) [µg/mL] | MFC90 [3, 9] [µg/mL] | MFC90 [3, 10] [µg/mL] | MIC range (Alternaria spp.) [µg/mL] | MIC range (Aspergillus spp.) [µg/mL] | MIC range (Chaetomium spp.) [µg/mL] | MIC range (Curvularia spp.) [µg/mL] | MIC range (Epicoccum nigrum) [µg/mL] | MIC range (Paecilomyces spp.) [µg/mL] | MIC range (Phoma sp.) [µg/mL] | MIC range (Scedosporium spp.) [µg/mL] | MIC range (Scopulariopsis spp.) [µg/mL] | MIC range (Scytalydium spp.) [µg/mL] | MIC range (Trichophyton soundanense) [µg/mL] | MIC range (Trichophyton verrucosum) | other results
COC1=CC(=O)C[C@@H](C)[C@]12Oc1c(Cl)c(OC)cc(OC)c1C2=O [Griseofulvin] | 2 (≈ 5.67 µM) | 0.5 (≈ 1.42 µM) | 8 (≈ 22.7 µM) | >16 | 0.25 to 4 | 1 to 2 | – | – | – | – | – | – | – | – | – | – | – | – | – | – | MFC Range (Epidermophyton floccosum [2]): 1 to 16 µg/mL; MIC range (Trichophyton tonsurans; T. tonsurans (n = 6), NB-002 as μg CPC/ml): 0.5 to 1 µg/mL; MIC50 (Trichophyton tonsurans; [8]): 0.5 µg/mL (≈ 1.42 µM); MIC90 (Trichophyton tonsurans; [8]): 1 µg/mL (≈ 2.83 µM); MIC range (Trichophyton tonsurans; T. tonsurans n = 10 (tinea capitis species), in µg/mL): 0.5-1.0; MIC50 (Microsporum canis): 0.25 µg/mL (≈ 0.709 µM); MIC90 (Microsporum canis): 0.5 µg/mL (≈ 1.42 µM); MIC range (Microsporum canis; in µg/mL): 0.25-0.5; MIC50 (T. violaceum): 4 µg/mL (≈ 11.3 µM); MIC90 (T. violaceum): 4 µg/mL (≈ 11.3 µM); MIC range (T. violaceum; in µg/mL): 1.0-8.0; MIC50 (M. audouinii): 0.25 µg/mL (≈ 0.709 µM); MIC90 (M. audouinii): 1 µg/mL (≈ 2.83 µM); MIC range (M. audouinii; in µg/mL): 0.12-1.0
C[C@@H]1[C@H](O)[C@@H](C)/C=C/C=C/C=C/C=C/C=C/C=C/C=C/[C@H](O[C@@H]2O[C@H](C)[C@@H](O)[C@H](N)[C@@H]2O)C[C@@H]2O[C@](O)(C[C@@H](O)C[C@@H](O)[C@H](O)CC[C@@H](O)C[C@@H](O)CC(=O)O[C@H]1C)C[C@H](O)[C@H]2C(=O)O [Amphotericin B] | – | – | – | – | – | – | 4 (≈ 4.33 µM) | 2 (≈ 2.16 µM) | 1 (≈ 1.08 µM) | 1 to 4 | 0.5 to 4 | 0.125 to 1 | 0.25 to 1 | >16 | 0.5 to 2 | >16 | >16 | 0.5 to 1 | 0.125 to 0.25 | 0.125 to 0.25 µg/mL | MIC90 [3, 9]: 2 µg/mL (≈ 2.16 µM); MIC90 [3, 10]: 2 µg/mL (≈ 2.16 µM)
CCC(C)n1ncn(-c2ccc(N3CCN(c4ccc(OCC5COC(Cn6cncn6)(c6ccc(Cl)cc6Cl)O5)cc4)CC3)cc2)c1=O (stereo not shown) [Itraconazole] | 0.5 (≈ 0.709 µM) | – | 8 (≈ 11.3 µM) | >16 | 0.0625 to 0.5 | 0.125 to 0.5 | >16 | >16 | 0.25 to 0.5 | 0.06 to 1 | 0.5 to 1 | 0.125 to 0.25 | 0.25 to 0.5 | – | 0.06 to 0.5 | – | – | – | 0.125 to 0.25 | 0.06 to 0.125 µg/mL | MIC50 [1]: 0.125 µg/mL (≈ 0.177 µM); MIC90 [3, 11]: > 16 µg/mL; MIC90 [3, 12]: 0.5 µg/mL (≈ 0.709 µM); MIC range (Acremonium spp.): >8 µg/mL; MIC (Epidermophyton floccosum [4]): 0.25 µg/mL (≈ 0.354 µM); MIC [5, 13]: 0.0625 µg/mL (≈ 0.0886 µM); MIC [5, 14]: 0.0625 µg/mL (≈ 0.0886 µM); MIC [5, 15]: 0.0625 µg/mL (≈ 0.0886 µM); MIC [5, 16]: 0.0625 µg/mL (≈ 0.0886 µM); MIC [5, 17]: 0.125 µg/mL (≈ 0.177 µM); MIC [5, 18]: 0.0625 µg/mL (≈ 0.0886 µM); MIC (Trichophyton rubrum [6]; [19]): 0.0625 µg/mL (≈ 0.0886 µM); MIC (Trichophyton rubrum [6]; [20]): 0.0625 µg/mL (≈ 0.0886 µM); MIC (Trichophyton rubrum [6]; [21]): 0.0313 µg/mL (≈ 0.0444 µM); reduction of colony counts / activity on mycelia and microconidia (T. rubrum; 16×MIC, up to 24 hours, nongrowth conditions (FIG. 10)): no activity; # CFU recovered (Trichophyton rubrum [7]): 2
Cc1cc(C2CCCCC2)n(O)c(=O)c1 [Ciclopirox] | 1 (≈ 4.82 µM) | 0.5 (≈ 2.41 µM) | 1 (≈ 4.82 µM) | 16 (≈ 77.2 µM) | 0.125 to 1 | 0.5 (≈ 2.41 µM) | >32 | >32 | 0.25 to 0.5 | 0.5 to 2 | 0.25 to 0.5 | 0.5 to 1 | 0.125 to 2 | 8 to 16 | 0.5 to 1 | 0.5 to 8 | 0.5 to 2 | 0.5 to 1 | 0.125 to 0.25 | <=0.06-0.125 ug/ml | MIC90 [3, 11]: 1 µg/mL (≈ 4.82 µM); MIC90 [3, 12]: 4 µg/mL (≈ 19.3 µM); MIC range (Acremonium spp.): 0.5 to 4 µg/mL; MIC range (Fusarium spp.): 1 to 16 µg/mL; MIC (Epidermophyton floccosum [4]): 4 µg/mL (≈ 19.3 µM); MIC [5, 13]: 4 µg/mL (≈ 19.3 µM); MIC [5, 14]: 4 µg/mL (≈ 19.3 µM); MIC [5, 15]: 4 µg/mL (≈ 19.3 µM); MIC [5, 16]: 4 µg/mL (≈ 19.3 µM); MIC [5, 17]: 4 µg/mL (≈ 19.3 µM); MIC [5, 18]: 4 µg/mL (≈ 19.3 µM); MIC (Trichophyton rubrum [6]; [19]): 4 µg/mL (≈ 19.3 µM); MIC (Trichophyton rubrum [6]; [20]): 4 µg/mL (≈ 19.3 µM); MIC (Trichophyton rubrum [6]; [21]): 4 µg/mL (≈ 19.3 µM); reduction in colony counts (T. rubrum; 16×MIC or 8 μg/ml, after 8 hours, nongrowing mycelia (not microconidia), isolate NBD032): 3 log; activity against the conidial form (T. rubrum; 16×MIC, up to 24 hours, nongrowth conditions): no activity
